According to a melting point compilation (Tetko et al.; mined from patent text by program, amines drawn as free bases though some values may be those of a salt):

First: O=C1NCCc2c(-c3cccs3)[nH]c3cccc1c23
Second: CCN1CCC(c2c[nH]c3ccc(NC(=N)c4cccs4)cc23)CC1
The melting point of the first is higher: 220 to 222 °C for the first, 150 to 152 °C for the second.

First: CCOC(=O)C1=CCCCC1S(=O)(=O)Nn1cccc1-c1ccccc1 (configuration not stated)
Second: CCOC(=O)C=C1c2ccccc2CC(=O)c2ccccc21
The melting point of the first is higher: 160 to 161 °C for the first, 56 to 62 °C for the second.

Compared with `N#Cc1cc(Cl)ccc1-c1ccc(C(O)CCC(=O)O)cc1` (configuration not stated), `CCn1cc(C(=O)O)c(=O)cc1-c1cccc(Cl)c1` is higher in melting point: 168 to 169 °C for the first, 212 to 213 °C for the second.

First: COc1ccc(COc2ccccc2-c2cccc(N)c2)cc1
Second: OCc1ccc(-c2ccc(OCc3ccccc3)cc2)cc1
The melting point of the first is lower: 68 to 70 °C for the first, 194 to 195 °C for the second.

First: Cc1nc(C(C)(O)c2nc(C)c(C)s2)sc1C
Second: CC(C)(C)c1cc(-c2nc(O)ns2)cc(C(C)(C)C)c1O
The melting point of the first is lower: 143 to 144 °C for the first, 230 to 232 °C for the second.

Compared with `CCCCc1oc2ccccc2c1/C=N/OCCCOc1ccc(C(=O)O)c(NC(=O)c2ccc(C(C)(C)C)cc2)c1`, `CCNC(=O)C(C)(C)c1ccc(C(=O)Nc2cn3cc(Cl)ccc3n2)cc1` is higher in melting point: 181 to 182 °C for the first, 228 to 230 °C for the second.

Compared with `OCc1cccc(-c2coc(-c3cn([C@H]4CN5CCC4CC5)nn3)c2)c1`, `O=C(N[C@H]1CC[C@H](CCN2CCN(c3nccc4c3OCC4)CC2)CC1)c1ccc(-c2ccccc2)cc1` is higher in melting point: 212 °C for the first, 220 °C for the second.

Compared with `CCOC(=O)c1cc(C)c2c(c1)c1ccccc1n2Cc1ccccc1`, `COc1ccc(OCc2ccccc2)c(C(=O)OCc2ccccc2)c1` is lower in melting point: 118 to 119 °C for the first, 93 to 94.5 °C for the second.

First: Cc1[nH]c(C(=O)Nc2ccc3ncsc3c2)c(C)c1-c1nc2ccc(C(=O)c3ccccc3)cc2[nH]1
Second: Cc1nc(COc2ccc(Cn3cc(CCC(=O)O)c(-c4ccccc4)c3)cc2)cs1
The melting point of the first is higher: 155 to 157 °C for the first, 113 to 114 °C for the second.

First: O=C(CCN1CCC(C(O)(c2ccc(F)cc2)c2ccc(F)cc2)CC1)Nc1ccccc1
Second: CS(=O)(=O)c1ccc(-c2ccc(I)n2-c2ccc(F)cc2)cc1
The melting point of the first is higher: 190 to 192 °C for the first, 174 to 176 °C for the second.

First: CCCCCCCCNC(=O)NCc1ccc(O)c(OC)c1
Second: CCOCc1nc2c(N)nc3cc(OCCCN4CCCC4=O)ccc3c2n1CCCCNC(=O)NC(C)C
The melting point of the first is lower: 90 to 92 °C for the first, 98 to 101 °C for the second.

Compared with `COC(=O)c1cc(C=O)ccc1[N+](=O)[O-]`, `COC(=O)c1cc(S(C)(=O)=O)c(S(F)(F)(F)(F)F)cc1C` is higher in melting point: 76.7 °C for the first, 127 °C for the second.

Compared with `Clc1cc(Nc2nnc(-c3ccc4nonc4c3)s2)ccc1Br`, `COc1ccc(Nc2nnc(Cc3ccncc3)c3ccccc23)cc1` is lower in melting point: 326 to 327 °C for the first, 223 to 224 °C for the second.

First: COc1ccnc(CCc2nc3cncnc3[nH]2)c1
Second: COc1ccc2[nH]c(S(=O)Cc3cc(N4CCCCC4)ncn3)nc2c1 (configuration not stated)
The melting point of the first is higher: 150 to 152 °C for the first, 98 to 101 °C for the second.

First: Cc1cc(O)cc(C)c1Sc1ccccn1
Second: Cc1oc(-c2ccccc2)nc1CCc1ccc(CO)cc1
The melting point of the first is higher: 190 °C for the first, 103 to 104 °C for the second.

First: CN1C(c2ccccc2)CC(=O)CC1c1ccccc1 (configuration not stated)
Second: Cc1c(C(=O)OC(C)C)ncc2c1c1c(OCc3ccccc3)cccc1n2CC(=O)N(C)CCc1ccccc1
The melting point of the first is higher: 147 to 149 °C for the first, 69 to 74 °C for the second.

Compared with `CC1(O)CCN(C(=O)C(c2ccccc2)n2cnc3[nH]ncc3c2=S)CC1` (configuration not stated), `Cn1cc(C2=C(c3cccc(NC(O)CCO)c3)C(=O)NC2=O)c2ccccc21` (racemic) is lower in melting point: 140 to 144 °C for the first, 97.5 to 101 °C for the second.

Compared with `N#Cc1ccc(-c2cncc(OC3SCC(O)C(O)C3O)c2)cc1F` (configuration not stated), `COc1ccccc1-c1nc(N)c(C#N)nc1-c1ccc(=O)n(C(C)C)c1` is higher in melting point: 214 °C for the first, 223 °C for the second.

First: Cc1nn(C)c(C(=O)O)c1-c1ccc(Cl)c(C(=O)NCC23CC4CC(CC(C4)C2)C3)c1
Second: Cc1cccc2ncc(C(=O)NCC(C)(C)C)c(=O)n12
The melting point of the first is higher: 207 °C for the first, 191 to 194 °C for the second.

First: CCCC(=O)NCc1cccc2c1C(=O)N(C1CCC(=O)NC1=O)C2=O (configuration not stated)
Second: O=C(CN1C(=O)c2ccccc2C1=O)c1ncc(C(F)(F)F)cc1Cl
The melting point of the first is lower: 121 to 123 °C for the first, 162 °C for the second.

First: CSc1nc(=O)[nH]cc1Cl
Second: CC(C)n1nc(Cl)cc1O
The melting point of the first is higher: 254 °C for the first, 138 to 140 °C for the second.

First: COc1ccc(/C=C/c2ccncc2)cc1OCCCCCc1ccccc1
Second: Cc1cccc(C=Cc2ccncc2)n1
The melting point of the first is higher: 98 to 100 °C for the first, 72 to 73 °C for the second.

First: C#CCN1C(=O)COc2cc(F)c(-n3nc4n(c3=O)CCS4)cc21
Second: CCn1c(=O)n(O)c(=O)c2cc(F)c(N3CCN(C)CC3)cc21
The melting point of the first is higher: 211 to 213 °C for the first, 132 to 134 °C for the second.

Compared with `Nc1c([N+](=O)[O-])sc2ccc(Br)cc12`, `CN(C)CCc1[nH]c2ccc(Br)cc2c1CSc1ccccc1` is lower in melting point: 282 to 284 °C for the first, 112 to 115 °C for the second.

First: CCCc1c2c(cc3c(=O)cc(C(=O)OCC)oc13)CCCC2
Second: CCOC(=O)C1=C(NC(=O)Nc2cc(C(=O)OC(C)C)c(Br)cc2Cl)CCC1
The melting point of the first is lower: 98 to 99.5 °C for the first, 131 to 132 °C for the second.

Compared with `Cc1c(C=CC=O)c2c(c(C)c1OCc1ccccc1)CC(C)(C)O2`, `CCOC(=O)C1=C(C)N(C(C)=O)C(c2csc(C)n2)=NC1c1ccccc1` (configuration not stated) is higher in melting point: 108 to 109 °C for the first, 140 to 142 °C for the second.

Compared with `C[C@H](Nc1c(-c2c(F)cc(F)cc2F)c(Br)nc2ncnn12)C(F)(F)F`, `CC(C)OC(=O)C(C)Oc1ncn(-c2cccc(C(F)(F)F)c2)n1` (configuration not stated) is higher in melting point: 95 to 97 °C for the first, 97 to 99 °C for the second.

Compared with `CC(=O)c1ccc2c(c1)Cc1ccc(C(C)=O)cc1-2`, `O=C(NC(=O)c1c(Cl)cccc1Cl)Nc1ccc(Br)cn1` is higher in melting point: 155 °C for the first, 228 to 230 °C for the second.

First: Cn1nnnc1SCC1=C(C(=O)O)N2C(=O)C(NC(=O)Cn3ccnc3S(C)(=O)=O)C2SC1 (configuration not stated)
Second: CCOc1ccc(C2=NN(C3CCN(C(=O)NC(C)(C)C)CC3)C(=O)[C@@H]3CC=CC[C@H]23)cc1OCC
The melting point of the first is higher: 230 °C for the first, 145 to 148 °C for the second.

First: Nc1nc(-c2cc(Cl)ccc2Cl)nc(N2CCOCC2)n1
Second: CO[C@]1(c2csc(Sc3ccc4c(c3)CC/C4=N\O)c2)CCO[C@@H]1C (racemic)
The melting point of the first is higher: 189 to 191 °C for the first, 140 to 142 °C for the second.

Compared with `CC(C)(C)c1cc(C(=O)NCc2cccc([N+](=O)[O-])c2)cc(C(C)(C)C)c1O`, `COc1ccc(CN2C(=O)[C@H](CO)[C@H]2S(=O)(=O)C(C)(C)C)cc1` is lower in melting point: 210 to 211 °C for the first, 121 to 122 °C for the second.

First: COc1ccc(-c2cc(=O)c3c(O)cc(O)c(-c4cc(-c5cc(=O)c6c(O)cc(O)cc6o5)ccc4OC)c3o2)cc1
Second: Cc1cc(=O)c(-c2ccc(Oc3ccc(Cl)cc3)cc2)c(C)n1O
The melting point of the first is lower: 219 to 222 °C for the first, 232 to 236 °C for the second.

Compared with `NC(=O)c1cc([N+](=O)[O-])cnc1C(Cl)Cl`, `Cc1ccnc(N2CCN(CCc3c(C)n4c5c(cc([N+](=O)[O-])cc35)CCC4)CC2)c1` is higher in melting point: 125 to 127 °C for the first, 230 °C for the second.

First: CC(C)c1ccc(-n2cc(C#N)cc2N)c(Br)c1
Second: COc1ccc(-c2cn(O)c(=S)[nH]2)cc1
The melting point of the first is lower: 106 °C for the first, 160 °C for the second.

First: CSCCOc1ccccc1NN
Second: COc1cc(C(=O)CCCC2CCCCC2)c(OC)cc1C
The melting point of the first is higher: 72.5 to 74.5 °C for the first, 53.5 to 54.5 °C for the second.

`CC(=N)NC/C(F)=C\CC[C@H](N)C(=O)O` and `CCCCn1c(=O)c2c(ncn2S(=O)(=O)CCCC)n(CCCC)c1=O` cannot be ordered by melting point: 51.5 to 56.3 °C for the first, 55 to 57 °C for the second.
